# Measured values from US20250152559A1, “METHODS FOR TREATING MYC-AMPLIFIED CANCER” (The Governing Council of the University of Toronto, priority 2023, published 2025).
# Experiments:
# D425 = assay: PrestoBlue cell viability, 72-hour treatment, limiting dilution; assay type: cell-based; conditions: Homo sapiens, read-out: BAY2402234 IC50; D425, G3MB-MYC
# Description: (§1) SU_MB002, NSC194, NSC197 and NSC201FT, MBT375 and MED411FHTC were maintained in Neurocult Complete (NCC) media (Stem Cell Technologies; catalogue #05751). D425 and D458 were maintained in Dulbecco's […] (DMEM) containing 10% fetal bovine serum (FBS). HD-MB03 were maintained in NCC containing 10% FBS. All cell lines were conditioned in NCC for a minimum of 48 hours before experimentation. SU_MB002 and HD-MB03 G3MB-MYC PDOX were obtained from collaborators as kind gifts and are frequently passaged in vivo. SU_MB002, a treatment-refractory group 3 MB acquired at autopsy was received from Dr. Yoon-Jae Cho. Dr. Till Milde provided HD-MB03, a treatment-naïve group 3 MBs. ICB1299 group 4 MB cells were obtained as a gift from Silvia Marino's laboratory^62. MBT375 was established in-house from a surgical specimen of group 4 MB, which was engrafted in the cerebellum of mice for serial propagation. Nanostring genotyping was used to confirm group 4 medulloblastoma identity. MED411FHTC PDOX were procured from Dr. Olson's brain tumor research lab. D425 and D458 were obtained from the ATCC. All cell lines were fingerprint verified by short tandem repeat (STR) profiling. NSC194, NSC197 and NSC201FT were derived in-house from donor fetal brain tissues^63.
# (§2) For assessment of viability, cells were seeded into 96-well plates at a density of 1,000 cells per well. Viability was measured by adding PrestoBlue™ diluted 1:10 (ThermoFisher Scientific; Catalogue #A13261) followed by a 4-hour incubation. Relative fluorescence intensity was determined via background correction. To assess tumorsphere forming capacity, cells were seeded at a low density (200 cells per well) and incubated for 3-5 days. Tumorspheres were manually counted thereafter.
# D458 = assay: as above; assay type: cell-based; conditions: Homo sapiens, read-out: BAY2402234 IC50; D458, G3MB-MYC
# Description: as §1, §2
# HD-MB03 = assay: as above; assay type: cell-based; conditions: Homo sapiens, read-out: BAY2402234 IC50; HD-MB03, G3MB-MYC
# Description: as §1, §2
# MED411-FHTC = assay: as above; assay type: cell-based; conditions: Homo sapiens, read-out: BAY2402234 IC50, G3MB-MYC
# Description: as §1, §2
# [1] = system: O-GlcNAc-conjugated proteins and c-Myc in HD-MB03 and SU_MB002 tumor cells; assay: Western blotting of O-GlcNAc-linked proteins and c-Myc; assay type: cell-based, human; conditions: HD-MB03 and SU_MB002, BAY vs vehicle
# Excerpt: Uridine metabolite depletion may impact not only the macromolecular demands of the rapidly cycling cellular phenotype identified through scRNA-seq analysis (inducing cell cycle arrest), but also the potentiation of oncogenic signaling programs. […] To determine whether reduced UDP-GlcNAc abundance influences O-GlcNAcylation of proteins and/or expression of c-Myc at the protein level, the abundance of β-O-glycosidic-linked proteins (Ser and Thr residues) and the expression of c-Myc protein in HD-MB03 and SU_MB002 tumor cells treated with BAY or its vehicle, were measured using Western blotting.
# Protein lysates were isolated from approximately 500,000-1,000,000 cells. Pellets were rinsed with PBS and then lysed in RIPA buffer containing HALT™ protease inhibitor cocktail (ThermoFisher). Protein concentrations were quantified using the Bradford Assay (BioRad). Protein size was resolved via SDS-PAGE and then transferred to PVDF for immunoblotting. […] Quantification was performed by analyzing mean pixel density of each band and then normalizing to GAPDH loading control. […]
# HD-MB03 PDOX = assay: Orthotopic PDOX model, IVIS bioluminescence and survival; assay type: in vivo, mice; conditions: HD-MB03, regimens R1 and R2 vs vehicle
# Description: (§3) The treatment-naïve, patient-derived cell line, HD-MB03, was orthotopically engrafted into immunocompromised mice. Four days later, tumors were readily detectible via bioluminescence imaging. Thereafter mice were randomized into three cohorts, which were treated with either the vehicle or one of two BAY treatment regimens (R1 and R2; FIG. 5B).
# PDOX were generated by engrafting 25,000 tumor cells (both SU_MB002 and HD-MB03 cell lines), suspended in 5 μL PBS, directly into the mouse cerebrum. Flank xenografts were generated by engrafting 2,000,000 tumor cells suspended in a 100 μL solution of PBS/Matrigel® (1:1 v/v). For preclinical studies, cells were engineered to express enhanced firefly luciferase. […] Flank tumors were isolated at matched time points and formalin fixed for 48 hours, paraffin embedded (FFPE) and sectioned for follow-up analysis. Tumor area was manually measured in H&E-stained sections of FFPE tissues using ImageJ.
# For imaging via the in vivo imaging system (IVIS), mice were sedated with isoflurane gas and then administered luciferin substrate (150 mg/kg in PBS) via subcutaneous injection. After 10 minutes, bioluminescent signal (photons per second; p/s) was quantified using Living Image software.
# [2] = Mouse body weight / tolerability during treatment regimens; assay type: in vivo
# Description: as §3
compound,measurement,setting,value
CCn1c(CO)nn(-c2cc(O[C@@H](C)C(F)(F)F)c(C(=O)Nc3c(F)cccc3Cl)cc2F)c1=O [BAY2402234],IC50,D425,0.494 nM
same,IC50,D458,0.26 nM
same,IC50,HD-MB03,0.243 nM
same,IC50,MED411-FHTC,0.626 nM
same,abundance of O-GlcNAc-conjugated proteins,[1],global reduction
same,c-Myc protein expression,[1],significant reduction
same,overall survival,HD-MB03 PDOX,prolonged overall survival
same,PDOX growth (IVIS bioluminescence),HD-MB03 PDOX; oral gavage,significantly attenuated
same,tolerability over the entire treatment period,[2]; 5 mg/kg,well-tolerated
same,body weight,"[2]; R2, after the 10 mg/kg doses","marginal, temporary weight loss"
